# Reference: patent publication US9024041B2, “P38 MAP kinase inhibitors” (Respivert Ltd., priority 2010, dated 2015)
# What was measured:
# [1] = biological target: T1, p38 MAPKα isoform (MAPK14: Invitrogen) (Homo sapiens, UniProt Q16539); test: p38 MAPKα enzyme inhibition assay (FRET, Z-LYTE, via MAPKAP-K2 activation); type: biochemical; conditions: 2 hr pre-incubation, ATP 10.0 μM; read-out: Enzyme Inhibition IC50 p38α
# T1 construct: purchased Invitrogen
# [2] = biological target: T2, Recombinant, phosphorylated p38 MAPKγ (MAPK12:Invitrogen) (Homo sapiens, UniProt P53778); test: p38 MAPKγ enzyme inhibition assay (FRET, Z-LYTE); type: biochemical; conditions: 2 hr pre-incubation, ATP 100 μM; read-out: Enzyme Inhibition IC50 p38γ
# T2 construct: purchased Invitrogen
# T2 sequence (P53778 1-367): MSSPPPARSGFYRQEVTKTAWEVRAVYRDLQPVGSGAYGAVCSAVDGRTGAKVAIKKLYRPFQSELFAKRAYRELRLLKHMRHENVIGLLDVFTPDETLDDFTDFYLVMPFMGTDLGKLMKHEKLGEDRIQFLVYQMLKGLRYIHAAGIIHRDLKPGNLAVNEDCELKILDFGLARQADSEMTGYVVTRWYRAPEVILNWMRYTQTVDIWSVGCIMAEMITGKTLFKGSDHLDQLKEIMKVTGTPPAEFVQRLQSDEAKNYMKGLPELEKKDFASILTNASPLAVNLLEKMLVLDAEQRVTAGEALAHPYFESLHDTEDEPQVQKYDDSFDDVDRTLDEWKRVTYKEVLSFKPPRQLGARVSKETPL
# [3] = system: LPS-induced TNFα release in THP-1 cells; test: LPS-induced TNFα release in THP-1 cells; type: cell-based; conditions: Homo sapiens, 3 μg/mL LPS, 4 hr
# Method in brief: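 Human monocytic cells were stimulated with 3 μg/mL E. coli LPS for 4 hr. Supernatant TNFα was measured by sandwich ELISA. Inhibition was taken relative to vehicle control, and IC50 derived from the concentration-response curve.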
# [4] = system: LPS-induced TNFα release in d-U937 cells; test: LPS-induced TNFα release in d-U937 cells; type: cell-based; conditions: Homo sapiens, dU937, 4 h; read-out: LPS/TNFα REC50 d-U937
# Method in brief: (§1)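 U937 cells differentiated with PMA (100 ng/mL, 48–72 hr), pre-incubated with compound 2 hr, then stimulated with 0.1 μg/mL E. coli O111:B4 LPS for 4 hr. Supernatant TNFα and IL-8 measured by sandwich ELISA; REC50 (TNFα) and IC50 (IL-8 inhibition vs vehicle) taken from concentration-response curves.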
# [5] = system: LPS-induced IL-8 release in d-U937 cells; test: LPS-induced IL-8 release in d-U937 cells; type: cell-based; conditions: Homo sapiens, dU937, 0.1 μg/mL LPS, 4 hr
# Method in brief: as §1
# [6] = system: Poly I:C-induced ICAM-1 expression in BEAS2B cells; test: Poly I:C-induced ICAM-1 induction in BEAS2B cells; type: cell-based; conditions: Homo sapiens, BEAS-2B, poly I:C 1 μg/mL, 18 hr, read-out: PolyI:C/ICAM1 IC50 BEAS2B
# Method in brief: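 Human bronchial epithelial BEAS2B cells were pre-incubated with compound for 2 h, then transfected with poly I:C at 1 μg/mL. Surface ICAM-1 was measured 18 h later by cell-based ELISA (OD450–655), normalised to crystal-violet cell number (OD595). IC50 was taken from the concentration–response curve against vehicle.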
# [7] = system: Differentiated U937 cells; test: MTT assay: cell viability on exposure to test compounds; type: cell-based, human; conditions: percentage loss of cell viability vs vehicle, 1 μg/mL; for MTT Assay (Viability) 4 h d-U937: 5% FCS; for MTT Assay (Viability) 24 h d-U937: 10% FCS
# Method in brief: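 Differentiated U937 cells were pre-incubated with compound for either 4 h in 5% FCS or 24 h in 10% FCS, then given MTT for 1 h. Formazan was dissolved in DMSO and read at 550 nm. Viability loss is expressed as % versus 0.5% DMSO vehicle, so an apparent gain appears as a negative value.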
# T1 sequence (Q16539 whole entry, canonical isoform): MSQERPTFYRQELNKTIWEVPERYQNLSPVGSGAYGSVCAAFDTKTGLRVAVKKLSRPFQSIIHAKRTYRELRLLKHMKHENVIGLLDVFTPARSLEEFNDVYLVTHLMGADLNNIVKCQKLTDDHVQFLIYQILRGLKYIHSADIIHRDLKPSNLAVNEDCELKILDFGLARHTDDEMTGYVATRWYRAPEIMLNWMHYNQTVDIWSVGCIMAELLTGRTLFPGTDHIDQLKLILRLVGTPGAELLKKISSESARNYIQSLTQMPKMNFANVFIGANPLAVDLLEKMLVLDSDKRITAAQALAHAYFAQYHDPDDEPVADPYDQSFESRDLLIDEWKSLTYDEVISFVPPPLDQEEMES
SMILES,IC50 [1] [nM],IC50 [2] [nM],IC50 [3] [nM],EC50 [4] [nM],IC50 [5] [nM],IC50 [6] [nM],MTT Assay (Viability) 4 h d-U937 [7] [%],MTT Assay (Viability) 24 h d-U937 [7] [%]
"COCC(=O)Nc1cc(Oc2ccc(NC(=O)Nc3cc(C(F)(F)C(F)(F)F)nn3-c3ccc(C)cc3)c3ccccc23)ccn1 [Example 30, 2-methoxy-N-(4-(4-(3-(3-(perfluoroethyl)-1-p-tolyl-1H-pyrazol-5-yl)ureido)naphthalen-1-yloxy)pyridin-2-yl)acetamide]",10.1,> 15600,10.2,108,1910,1490,−6.3,−46.1
"COCC(=O)Nc1cc(Oc2ccc(NC(=O)Nc3cc(C(C)(C)C)nn3-c3cccc(O)c3)c3ccccc23)ccn1 [Example 32, N-(4-(4-(3-(3-tert-butyl-1-(3-hydroxyphenyl)-1H-pyrazol-5-yl)ureido)naphthalen-1-yloxy)pyridin-2-yl)-2-methoxyacetamide]",7.7,78.4,0.7,0.1,0.7,5.5,5.8,42.2
"COCC(=O)Nc1cc(Oc2ccc(NC(=O)Nc3cc(C(C)(C)C)nn3-c3cccc(OC)c3)c3ccccc23)ccn1 [Example 36, N-(4-(4-(3-(3-tert-butyl-1-(3-methoxyphenyl)-1H-pyrazol-5-yl)ureido)naphthalen-1-yloxy)pyridin-2-yl)-2-methoxyacetamide]",15.1,153,0.8,0.1,0.8,4.9,−5.2,−1.6

# Second part, led by results:
IC50 [1] [nM],IC50 [2] [nM],IC50 [3] [nM],EC50 [4] [nM],IC50 [5] [nM],SMILES,IC50 [6] [nM],MTT Assay (Viability) 4 h d-U937 [7] [%],MTT Assay (Viability) 24 h d-U937 [7] [%]
7.7,14500,138,3300,> 1690,"COCC(=O)Nc1cc(Oc2ccc(NC(=O)Nc3cc(C(F)(F)F)nn3-c3ccc(C)cc3)c3ccccc23)ccn1 [Example 29, 2-methoxy-N-(4-(4-(3-(1-p-tolyl-3-(trifluoromethyl)-1H-pyrazol-5-yl)ureido)naphthalen-1-yloxy)pyridin-2-yl)acetamide]",412,0.8,−5.7
17.1,77.2,1,0.8,19.6,"CNS(=O)(=O)Cc1ccc(-n2nc(C(C)(C)C)cc2NC(=O)Nc2ccc(Oc3ccnc(NC(=O)COC)c3)c3ccccc23)cc1 [Example 31, N-(4-(4-(3-(3-tert-butyl-1-(4-((N-methylsulfamoyl)methyl)phenyl)-1H-pyrazol-5-yl)ureido)naphthalen-1-yloxy)pyridin-2-yl)-2-methoxyacetamide]",> 149,1.7,50.1
5.3,180,1,0.7,7,"CNC(=O)Nc1cc(Oc2ccc(NC(=O)Nc3cc(C(C)(C)C)nn3-c3ccc(O)cc3)c3ccccc23)ccn1 [Example 33, 1-(3-tert-butyl-1-(4-hydroxyphenyl)-1H-pyrazol-5-yl)-3-(4-(2-(3-methylureido)pyridin-4-yloxy)naphthalen-1-yl)urea]",4.4,−1.3,−24.1
29.1,117,1.5,1.4,18.1,"CNC(=O)Nc1cc(Oc2ccc(NC(=O)Nc3cc(C(C)(C)C)nn3-c3ccc(OC)cc3)c(C)c2C)ccn1 [Example 37, 1-(4-(4-(3-(3-tert-butyl-1-(4-methoxyphenyl)-1H-pyrazol-5-yl)ureido)-2,3-dimethylphenoxy)pyridin-2-yl)-3-methylurea]",2.6,5.3,42.7
